As a reminder, the pIC50 is the IC50 on a negative log10 scale, so that one unit is a factor of ten. As a reminder, the pKd is the Kd on a negative log10 scale, so that one unit is a factor of ten.

The values below come from patent US11466012B2, “Tetrahydroisoquinoline compounds” (ALLINKY BIOPHARMA, priority 2018, dated 2022).

Structures are written as SMILES. pIC50, pKd: −log10 of the molar value.

The subject of data set [1] is NCI-H358 human lung cancer xenograft. The experiment in a line: Subcutaneous NCI-H358 human lung cancer xenograft model in NOD/SCID mice. It counts as in vivo. Conditions: for Mean tumor volume: PG-D22 (Day 22 after first dosing), Compound 18 10 mg/kg Bid x 22 day, cisplatin 3.5 mg/kg BIW x 3.5 week, vehicle 630 mm^3; for Mean tumor volume / Tumor growth inhibition (TGI) / Number of mice (of 6) whose body weight loss (BWL) reached 10%: i.p.; for Tumor growth inhibition (TGI) / Anti-tumor effect compared with vehicle group: PG-D22; for Tumor growth inhibition (TGI): TGI=100x(1-T/C), Compound 18 10 mg/kg Bid; for Tumor growth inhibition (TGI) / Number of mice (of 6) whose body weight loss (BWL) reached 10%: cisplatin 3.5 mg/kg BIW; for Anti-tumor effect compared with vehicle group: group-2 p=0.026, group-3 p=0.019; for Number of mice (of 6) whose body weight loss (BWL) reached 10%: tumor bearing mice, compound 18 10 mg/kg Bid; for Tolerability / safety in tumor bearing mice: 10 mg/kg b.i.d. i.p. The source says:
Evaluation of the Efficacy of compound 18 in the Treatment of Subcutaneous NCI-H358 Human Lung Cancer Xenograft Model in NOD/SCID Mice
The treatments were started when the mean tumor size reached 141 mm^3. The test article administration and the animal numbers in each study group are shown in the following experimental design table.
Tumor growth inhibition (TGI): TGI (%) is an indication of antitumor effectiveness, and expressed as: TGI (%)=100×(1−T/C). T and C were the mean tumor volume of the treated and control groups, respectively, on a given day.

In data set [2] the test system is PANC-1 epithelioid carcinoma of the pancreas cell line bearing KRas^G12D oncogenic mutation. The experiment in a line: Cell proliferation inhibition (MTS), PANC-1. The settings on record: Homo sapiens. It counts as cell-based. On the procedure:
(§1) • Cell line #1: A549. Lung carcinoma cell line bearing KRas^G12S oncogenic mutation • Cell line #2: H358. non-small cell lung cancer line bearing KRas^G12C oncogenic mutation • Cell line #3: PANC-1. epithelioid carcinoma of the pancreas cell line bearing KRas^G12D oncogenic mutation • Cell line #4: RPMI. myeloma cell line bearing KRas^G12A oncogenic mutation
(§2) Cell lines were cultured in DMEM or RPMI-1640 supplemented with FBS 10%. In order to assess the antiproliferative effect of compounds, cells were seeded at a density of 1.8×10^3, 6.2×10^3, 7.8×10^3, 21×10^3 and 2×10^3 cells/cm^2, respectively, in tissue culture microplates and were incubated in humidified atmosphere at 5% CO2. 24 h later, compounds dissolved in DMSO 100% were added for different final concentrations ranging between 0.1 and 50 μM for a final DMSO concentration of 0.5% and the plates were incubated for another 72 h. After incubation, proliferation was quantified using CellTiter 96® Aqueous Non-Radioactive Cell Proliferation Assay-MTS (Promega #G5421) following manufacturer instructions. Amount of 490 nm absorbance is directly proportional to the number of living cells. Absorbance was recorded with a BMG Fluostar Optima Microplate Reader and normalized to control with vehicle.

In data set [3] the test system is H358 non-small cell lung cancer line bearing KRas^G12C oncogenic mutation. The experiment in a line: Cell proliferation inhibition (MTS), H358. Type of data set: cell-based. The settings on record: Homo sapiens, NCI-H358. As for the experimental part: as §1, §2
Data set [4] relates to NIH-H358 cell line. The experiment in a line: 3D CellTiter-Glo cell viability assay. It counts as cell-based. Conditions: 168 h, 7 days' compound treatment, 0.65% methylcellulose. On the procedure: The protocol to perform 3D CellTiter-Glo™ cell viability assay is as follows:
Day −1: Cell Plating • Adjust cell concentrations to 1×10^5 cells/ml with respective medium. (Cell concentration is adjusted according to data base or density optimization assay). Mix 3.5 mL of cell suspension 6.5 mL of 1% methylcellulose. Mix and wait for bubbles to disperse before pipetting. This step yields 10 ml of cell suspension in 0.65% methylcellulose solution. Add 99.5 μL cell suspensions to 96-well plates according to plate map with final cell density. • Two duplicate plates will be set up. One is for day 0 reading (T0) and the other will be cultured in incubator for reading at the end point. • Incubate the plates overnight in humidified incubator at 37° C. with 5% CO2.
Day 0: T0 plate reading and compound treatment • Take T0 plate, add 0.5 μL culture medium to each well for T0 reading. • Add 100 μl CellTiter-Glo® Reagent to each well. • Mix contents for 2 minutes on an orbital shaker to facilitate cell lysis. • Allow the plate to incubate at room temperature for 10 minutes to stabilize luminescent signal. • Record luminescence using EnVision Multi Label Reader. • Dilute the test articles at the concentration indicated at Test Articles Dilution. Add 0.5 μL of each 200× compound working solutions according to plate inoculation map.
Day 7: Plate reading of 7 days' compound treatment • Add 100 μL CellTiter-Glo® Reagent to each well. • Mix contents for 2 minutes on an orbital shaker to facilitate cell lysis. • Allow the plate to incubate at room temperature for 10 minutes to stabilize luminescent signal. • Record luminescence using EnVision Multi Label Reader.
In general terms: In ATP-based viability assays light output follows the ATP content of the culture.

The subject of data set [5] is A549 lung carcinoma cell line bearing KRas^G12S oncogenic mutation. Description: Cell proliferation inhibition (MTS), A549. Type of data set: cell-based. The settings on record: Homo sapiens. As for the experimental part: as §1, §2
In data set [6] the test system is RPMI-8226 myeloma cell line bearing KRas^G12A oncogenic mutation. Description: Cell proliferation inhibition (MTS), RPMI-8226. Type of data set: cell-based. Conditions: Homo sapiens. On the procedure: as §1, §2
Data set [7] deals with KRas (Homo sapiens, UniProt P01116). Description: Equilibrium dissociation constant by surface plasmon resonance. Type of data set: binding. Conditions: SPRi, immobilised KRas, 4° C. On the procedure:
Various concentrations of KRas dissolved in water were manually printed onto bare gold-coated (thickness 47 nm) PlexArray Nanocapture Sensor Chips (Plexera Bioscience, Seattle, Wash., US) at 40% humidity. Each concentration was printed in replicate, and each spot contained 0.2 μL of KRas solution. The chip was incubated in 80% humidity at 4° C. for overnight, and rinsed with 10×PBST for 10 min, 1×PBST for 10 min, and deionized water twice for 10 min. The chip was then blocked with 5% (w/v) non-fat milk in water overnight, and washed with 10×PBST for 10 min, 1×PBST for 10 min, and deionized water twice for 10 min before being dried under a stream of nitrogen prior to use. SPRi measurements
were performed with PlexAray HT (Plexera Bioscience, Seattle, Wash., US). Collimated light (660 nm) passes through the coupling prism, reflects off the SPR-active gold surface, and is received by the CCD camera. Buffers and samples were injected by a non-pulsatile piston pump into the 30 μL flowcell that was mounted on the coupling prim. […] The signal changes after binding and washing (in AU) are recorded as the assay value. Selected protein-grafted regions in the SPR images were analyzed, and the average reflectivity variations of the chosen areas were plotted as a function of time. Real-time binding signals were recorded and analyzed by Data Analysis Module (DAM, Plexera Bioscience, Seattle, Wash., US). […]
On the technique in general: Surface plasmon resonance follows binding to a sensor surface in real time, without labels.

Setting [8] is: 72 h incubation, MTS, compounds 1-53, median from experimental results.
[9] abbreviates: compounds 54-63, based on estimations and/or preliminary experimental results.

KRas, sequence (P01116 1-188 isoform P01116-2): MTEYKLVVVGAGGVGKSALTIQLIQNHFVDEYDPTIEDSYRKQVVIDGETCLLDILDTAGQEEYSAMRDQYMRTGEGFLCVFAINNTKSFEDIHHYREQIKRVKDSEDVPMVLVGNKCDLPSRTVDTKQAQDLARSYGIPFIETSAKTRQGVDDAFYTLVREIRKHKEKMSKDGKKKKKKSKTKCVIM

In the case of `N.N.[Cl][Pt][Cl]` [Cisplatin, reference compound], in data set [1], the Mean tumor volume amounted to 231 mm^3, the “Tumor growth inhibition (TGI)” value is “about 63%”, the “Anti-tumor effect compared with vehicle group” value is on record as “significant anti-tumor effects” and the “Number of mice (of 6) whose body weight loss (BWL) reached 10%” value is 4.

For `CCNC(=O)N1CCc2cc(OC)c(OCCc3cccc(O)c3)cc2C1c1ccc(C)cc1C` (stereo not shown) [Compound 17], the pIC50 in data set [2] (setting [8]) was 5.74; in data set [3] (setting [8]), 5.51; in data set [4] it was 6.21; in data set [5] (setting [8]), 5.45; in data set [6] (setting [8]) it was 5.76.

For `COc1cc2c(cc1OCCc1cccc(O)c1)C(c1ccc(C)cc1C)N(C(=O)NCc1cocn1)CC2` (stereo not shown) [Compound 18, 1-(2,4-dimethylphenyl)-7-(3-hydroxyphenethoxy)-6-methoxy-N-(oxazol-4-ylmethyl)-3,4-dihydroisoquinoline-2(1H)-carboxamide], the pIC50 in data set [2] (setting [8]) is 5.80; in data set [3] (setting [8]), 5.78; in data set [4] it was 6.43; in data set [5] (setting [8]), 5.71; in data set [6] (setting [8]), 5.92. Further, the “Tolerability / safety in tumor bearing mice” value is listed as “tolerate” in data set [1] and “safe” in data set [1] (listed as compound 18). In data set [1], this compound came in with a Mean tumor volume of 238 mm^3. The “Tumor growth inhibition (TGI)” value in data set [1] is given as “about 62%”. Moreover, the “Anti-tumor effect compared with vehicle group” value in data set [1] is on record as “significant anti-tumor effects”; in data set [1] (listed as compound 18) it was “significant anti-tumor activities”. In data set [1], the “Number of mice (of 6) whose body weight loss (BWL) reached 10%” value was “one”. In addition, the pKd in data set [7] was 8.06. In addition, in data set [7] (read-out: Kd (dissociation rate constant)), the koff was 0.00103 s⁻¹.

Turning to `COc1cc2c(cc1OCCc1cccnc1)C(c1ccc(C)cc1C)N(C(=O)NCc1cocn1)CC2` (stereo not shown) [Compound 23], the negative-log IC50 (pIC50) in data set [2] (setting [8]) was 6.31; in data set [3] (setting [8]), 6.23; in data set [4] it was 6.41; in data set [5] (setting [8]), 6.26; in data set [6] (setting [8]), 6.21.

For `Cc1ccc(C2c3cc(OCCc4cccc(F)c4)c(O)cc3CCN2C(=O)NCc2cocn2)c(C)c1` (stereo not shown) [Compound 26], the pIC50 in data set [2] (setting [8]) is 5.94; in data set [3] (setting [8]), 6.00; in data set [4], 5.03; in data set [5] (setting [8]), 5.69; in data set [6] (setting [8]), 6.10.

Turning to `Cc1ccc(C2c3cc(OCCc4cccnc4)c(C)cc3CCN2C(=O)NCc2cocn2)c(C)c1` (stereo not shown) [Compound 42], the pIC50 in data set [2] (setting [8]) was 6.21; in data set [3] (setting [8]), 5.92; in data set [4] it was 5.00; in data set [5] (setting [8]) it was 6.31; in data set [6] (setting [8]), 6.49.

On to `CCNC(=O)N1CCc2cc(OC)c(OCCc3cccnc3)cc2C1c1ccc(C)cc1C` (stereo not shown) [Compound 46], for which the pIC50 was 6.15 in data set [2] (setting [8]); 6.15 in data set [3] (setting [8]); 6.07 in data set [4]; 6.22 in data set [5] (setting [8]); 6.30 in data set [6] (setting [8]).

On to `CCNC(=O)N1CCc2cc(OC)c(OCCc3cccc(N)c3)cc2C1c1ccc(C)cc1C` (stereo not shown) [Compound 50], for which the pIC50 in data set [2] (setting [8]) was 6.30; in data set [3] (setting [8]) it was 6.10; in data set [4] it was 6.43; in data set [5] (setting [8]), 6.10; in data set [6] (setting [8]) it was 6.10.

Take `CCNC(=O)N1CCc2cc(OC)c(OCCc3cnccn3)cc2C1c1ccc(C)cc1C` (stereo not shown) [Compound 51]: the pIC50 in data set [2] (setting [8]) is 6.30; in data set [3] (setting [8]), 6.22; in data set [4], 6.48; in data set [5] (setting [8]), 6.30; in data set [6] (setting [8]), 6.22.

In the case of `COc1cc2c(cc1OCCc1nccnc1OC)C(c1ccc(C)cc1C)N(C(=O)NCc1cocn1)CC2` (stereo not shown) [Compound 62], the pIC50 is 6.15 in data set [2] (setting [9]), 6.15 in data set [3] (setting [9]), 6.22 in data set [5] (setting [9]) and 6.30 in data set [6] (setting [9]).

In the case of `COc1cnc(CCOc2cc3c(cc2OC)CCN(C(=O)NCc2cocn2)C3c2ccc(C)cc2C)cn1` (stereo not shown) [Compound 63], the negative-log IC50 (pIC50) in data set [2] (setting [9]) was 6.15; in data set [3] (setting [9]), 6.15; in data set [5] (setting [9]), 6.22; in data set [6] (setting [9]), 6.30.
